Assay results taken from patent US8158621B2, “Methods of treating or preventing autoimmune diseases with 2,4-pyrimidinediamine compounds” (Rigel Pharmaceuticals, Inc., priority 2002, dated 2012).

Tests used:
[1] = system: cultured human mast cells (CHMC); assay: CHMC high cell density IgE activation: histamine; assay type: cell-based
Procedure: (§1) After sensitizing, cells are counted, pelleted (1000 rpm, 5-10 minutes), and resuspended at 1-2 ×10^6 cells/ml in MT buffer. Add 100 ul of cell suspension to each well and 100 ul of compound dilutions. The final vehicle concentration is 0.5% DMSO. Incubate at 37° C. (5% CO2) for 1 hour. After 1 hour of compound treatment, stimulate cells with 6× anti-IgE. Mix wells with the cells and allow plates to incubate at 37° C. (5% CO2) for one hour. After 1 hour incubation, pellet cells (10 minutes, 1000 RPM) and collect 200 ul per well of the supernatant, being careful not to disturb pellet. Place the supernatant plate on ice. During the 7-hour step (see next) perform tryptase assay on supernatant that had been diluted 1:500. Resuspend cell pellet in 240 ul of CM media containing 0.5% DMSO and corresponding concentration of compound. Incubate CHMC cells for 7 hours at 37° C. (5% CO2). After incubation, pellet cells (1000 RPM, 10 minutes) and collect 225 ul per well and place in −80° C. until ready to perform ELISAS. ELISAS are performed on appropriately diluted samples (determined empirically for each donor cell population so that the sample measurement falls within the standard curve) following the supplier's instructions.

[2] = system: cultured human mast cells (CHMC); assay: CHMC low cell density IgE activation: tryptase assay; assay type: cell-based
In short: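 Read-out: tryptase released into supernatant, measured by substrate turnover over 30 min at RT. Low-density CHMC (1000-1500 cells/well, per donor degranulation activity) in MT buffer, 1 hr at 37° C, then anti-IgE challenge 30 min at 37° C.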

[3] = system: cultured human mast cells (CHMC); assay: CHMC high cell density IgE activation: hexos; assay type: cell-based
Procedure: as §1
(§2) Add 50 uL of BMMC cell supernatant (see above) to the hexoseaminidase substrate, place at 37° C. for 30 minutes and read the plate at 5, 10, 15, and 30 minutes on a spectrophotometer.

[4] = system: cultured human mast cells (CHMC); assay: CHMC high cell density IgE activation: TNFalpha; assay type: cell-based; conditions: read-out: CHMC high density TNF-alpha
Procedure: as §1

[5] = system: Human Jurkat T-cells (clone N); assay: Jurkat T-cell activation (anti-TCR, CD69 upregulation); assay type: cell-based
In short: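 Readout is CD69 upregulation by flow cytometry (anti-CD69-APC, 20 min at 4 °C) after 20 h anti-TCR (C305, 500 ng/ml) stimulation at 37 °C.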

[6] = system: cultured human mast cells (CHMC); assay: CHMC low cell density ionomycin activation: tryptase assay; assay type: cell-based
[7] = system: cultured human mast cells (CHMC); assay: CHMC high cell density IgE activation: tryptase; assay type: cell-based
Procedure: as §1

[8] = system: cultured human mast cells (CHMC); assay: CHMC high cell density IgE activation: LTC4; assay type: cell-based
Procedure: as §1

[9] = system: cultured human mast cells (CHMC); assay: CHMC low cell density IgE activation: LTC4 assay; assay type: cell-based; conditions: anti-IgE activation, LTC4 release
Procedure: Pellet CHMC cells (980 rpm, 10 min) and resuspend in pre-warmed MT. Add 65 ul of cells to each 96-well plate. Depending on the degranulation activity for each particular CHMC donor, load 1000-1500 cells/well. Mix four times followed by a 1 hr incubation at 37° C. […] Stimulate cells by adding 25 ul of 6× anti-IgE solution to the appropriate plates. Add 25 ul MT to un-stimulated control wells. Mix twice following addition of the anti-IgE. Incubate at 37° C. for 30 minutes. […] Spin plates at 1000 rpm for 10 min to pellet cells. Transfer 25 ul of supernatant to a 96-well black bottom plate and add 100 ul of freshly diluted tryptase substrate solution to each well. Incubate plates at room temperature for 30 min.
Leukotriene C4 (LTC4) is also quantified using an ELISA kit on appropriately diluted supernatant samples (determined empirically for each donor cell population so that the sample measurement falls within the standard curve) following the supplier's instructions.

[10] = system: cultured human mast cells (CHMC); assay: CHMC high cell density IgE activation: IL-13; assay type: cell-based
Procedure: as §1

Syk kinase = target: T1, Syk kinase (Homo sapiens, UniProt P43405); assay: Syk kinase biochemical fluorescence polarization assay; conditions: isolated Syk kinase, fluorescence polarization, 4 uM ATP
T1 construct: purchased Upstate, Lake Placid NY

[11] = system: basophil cells (human peripheral blood); assay: Basophil ionomycin activation: histamine release assay; assay type: cell-based; conditions: basophils, ionomycin activation, histamine release; read-out: Basophils Ionomycin Histamine IC50
Procedure: The basophil activation assay was carried out using whole human peripheral blood from donors allergic to dust mites with the majority of the red blood cells removed by dextran sedimentation. Human peripheral blood was mixed 1:1 with 3% dextran T500 and RBCs were allowed to settle for 20-25min. The upper fraction was diluted with 3 volumes of D-PBS and cells were spun down for 10 min at 1500 rpm, RT. Supernatant was aspirated and cells were washed in an equal volume MT-buffer. Finally, cells were resuspended in MT-buffer containing 0.5% DMSO in the original blood volume. 80 uL cells were mixed with 20 uL compound in the presence of 0.5% DMSO, in triplicate, in a V-bottom 96-well tissue culture plate. A dose range of 8 compound concentrations was tested resulting in a 10-point dose response curve including maximum (stimulated) and minimum (unstimulated) response. […] The cells were stimulated for 30 minutes at 37° C., 5% CO2. The plate was spun for 10 min at 1500 rpm at room temperature and 80 uL the supernatant was harvested for histamine content analysis using the histamine ELISA kit supplied by Immunotech. The ELISA was performed according to supplier's instructions.
Assays for ionomycin-induced basophil cell degranulation were carried out as described for the Basophil IgE or Dustmite Activation Assay (Section 7.5.5, supra), with the exception that following incubation with compound, cells were stimulated with 20 μl of 2 μM ionomycin.

[12] = system: bone marrow derived mast cells (BMMC); assay: BMMC high cell density IgE activation: TNFalpha; assay type: cell-based, mouse; conditions: high cell density; read-out: BMMC anti-IgE TNF-alpha
Procedure: (§3) After sensitizing, cells are counted, pelleted (1000 rpm, 5-10 minutes), and resuspended at 1-3×10^6 cells/ml in MT buffer. Add 100 ul of cell suspension to each well and 100 ul of compound dilutions. The final vehicle concentration is 0.5% DMSO. Incubate at 37° C. (5% CO2) for 1 hour. After 1 hour of compound treatment, stimulate cells with 6× stimulus (60 ng/ml DNP-BSA). Mix wells with the cells and allow plates to incubate at 37° C. (5% CO2) for one hour. After 1 hour incubation, pellet cells (10 minutes, 1000 RPM) and collect 200 ul per well of the supernatant, being careful not to disturb pellet, and transfer to a clean tube or 96-well plate. Place the supernatant plate on ice. During the 4-5 hour step (see next) perform the hexosiminidase assay. Resuspend cell pellet in 240 ul WEI-conditioned media containing 0.5% DMSO and corresponding concentration of compound. Incubate BMMC cells for 4-5 hours at 37° C. (5% CO2). After incubation, pellet cells (1000 RPM, 10 minutes) and collect 225 ul per well and place in −80° C. until ready to perform ELISAS. ELISAS are performed on appropriately diluted samples (determined empirically for each donor cell population so that the sample measurement falls within the standard curve) following the supplier's instructions.

[13] = system: bone marrow derived mast cells (BMMC); assay: BMMC high cell density IgE activation: hexosaminidase; assay type: cell-based, mouse; conditions: high cell density; read-out: BMMC anti-IgE Hexos.
Procedure: as §3, §2

[14] = system: bone marrow derived mast cells (BMMC); assay: BMMC high cell density IgE activation: IL-6; assay type: cell-based, mouse; conditions: high cell density; read-out: BMMC anti-IgE IL-6
Procedure: as §3

[15] = Low Density CHMC, anti-IgE activation, tryptase release, read-out: CHMC anti-IgE Tryptase IC50
[16] = Low Density CHMC, ionomycin activation, tryptase release, read-out: CHMC Ionomycin Tryptase IC50
[17] = Low Density, read-out: CHMC Ionomycin Tryptase
[18] = Low Density, read-out: CHMC anti-IgE Tryptase
[19] = low cell density, read-out: CHMC Ionomycin Tryptase

| Compound | IC50 [1] [nM] | IC50 [2, 15] [nM] | IC50 [3] [nM] | IC50 [4] [nM] | IC50 [5] [nM] | IC50 [6, 16] [nM] | IC50 [7] [nM] | IC50 [8] [nM] | IC50 [9] [nM] | IC50 [10] [nM] | IC50 (Syk kinase) [nM] | IC50 [11] [nM] | IC50 [6, 17] [nM] | IC50 [2, 18] [nM] | IC50 [6, 19] [nM] | IC50 [12] [nM] | IC50 [13] [nM] | IC50 [14] [nM] | IC50 ([2]; low cell density, read-out: CHMC anti-IgE Tryptase) [nM] |
| --- | --- | --- | --- | --- | --- | --- | --- | --- | --- | --- | --- | --- | --- | --- | --- | --- | --- | --- | --- |
| CC(C)Oc1ccc(Nc2nc(Nc3ccc4oc(CO)cc4c3)ncc2F)cc1 [Compound R926705] | 641 | 263 | 1010 | > 10000 | 2650 | > 10000 | 1260 | 494 | 533 |  |  |  |  |  |  |  |  |  |  |
| O=C(c1cc2cc(Nc3ncc(F)c(Nc4cccc(O)c4)n3)ccc2o1)N1CCNCC1 [Compound R926502] | > 2000 |  | > 2000 |  | 1630 |  | > 2000 |  |  | > 2000 | 217 | > 10000 |  |  |  |  |  |  |  |
| Cc1cc(Nc2nc(Nc3cccc(OCCN4CCNCC4)c3)ncc2F)cc(C)c1O [Compound R945142] | > 10000 |  | > 2000 | > 2000 | 1880 |  | > 2000 |  |  | > 10000 |  |  | > 10000 |  |  |  |  |  |  |
| Cc1cc(Nc2ncc(F)c(Nc3cc(C)c(O)c(Cl)c3)n2)cc(Cl)c1O [Compound R940216] | 1180 |  | < 1100 | 3190 | 1280 |  | < 1100 | < 1100 |  | 3010 |  |  | 7300 | 268 |  |  |  |  |  |
| COC(=O)C1Cc2cc(Nc3ncc(F)c(Nc4ccc(OC(C)C)cc4)n3)ccc2O1 (centres unmarked) [Compound R926706] | > 10000 | 70 | > 2000 | > 10000 | > 10000 | 2410 | > 10000 | 1490 | 78 |  |  |  |  |  |  |  |  |  |  |
| Nc1cc(Cl)cc(Nc2ncc(F)c(Nc3cc(N)cc(Cl)c3)n2)c1 [Compound R950141] | 627 |  | 567 | 1060 | 2380 |  | 618 | 201 |  | 798 |  |  | > 10000 | 310 |  |  |  |  |  |
| CNC(=O)c1cc2cc(Nc3ncc(F)c(Nc4ccc(C(C)(C)C)cc4)n3)ccc2o1 [Compound R926494] | > 10000 | 313 | 640 | > 10000 | 12500 | > 10000 | > 2000 | 326 | 78 |  |  |  |  |  |  |  |  |  |  |
| OCc1cc2cc(Nc3ncc(F)c(Nc4cccc(O)c4)n3)ccc2[nH]1 [Compound R926700] | < 1100 |  | < 1100 | < 1100 | 510 | > 10000 | < 1100 | < 1100 |  | 2050 |  |  |  |  |  |  |  |  |  |
| COC(=O)c1cc2cc(Nc3ncc(F)c(Nc4cccc(O)c4)n3)ccc2o1 [Compound R926614] |  | 228 | > 10000 | > 10000 | 6540 | > 10000 | > 10000 |  |  | 6440 |  |  |  |  |  |  |  |  |  |
| Cn1ncc2ccc(Nc3ncc(F)c(Nc4ccc(Cl)c(Cl)c4)n3)cc21 [Compound R935393] |  |  |  |  | > 10000 |  |  |  |  |  | 450 |  |  |  | > 10000 | 1470 | 2440 | 520 |  |
| COC(=O)c1cc2cc(Nc3ncc(F)c(Nc4ccc(OC(C)C)cc4)n3)ccc2o1 [Compound R926704] | > 10000 | 564 | > 2000 | > 10000 | 9270 | > 10000 | > 10000 | > 10000 |  |  |  |  |  |  |  |  |  |  |  |
| COc1c(C)cc(Nc2ncc(F)c(Nc3ccc4c(c3)NC(=O)C(C)(C)O4)n2)cc1Cl [Compound R940361] |  |  |  |  | 390 |  |  |  |  |  | 69 |  |  |  | 2200 | 70 | 60 | 100 | 47 |
